Assay [1] deals with MCF-7, human breast carcinoma cell. Kind of assay: Antiproliferative activity, sulforhodamine-B (SRB) assay, MCF-7. Type of assay: cell-based. Particulars: read-out: Antiproliferative activity IC50, MCF-7. How it is done: (§1) The SK-OV-3 ovarian cancer cell line, MCF-7 breast cancer line and HCT-116 colon cancer cell line were obtained from the National Cancer Institute, Biological Testing Branch (Frederick, MD, USA), and maintained in the logarithmic phase at 37 °C in a 5% CO2 humidified air in RPMI 1640 medium supplemented with 10% fetal calf serum, 2 mM glutamine, penicillin (100 U/mL) and streptomycin (0.1 mg/mL).
(§2) The growth inhibitory effects of compounds under investigation were compared to those of cisplatin (CDDP) and doxorubicin (DXR), used as positive controls, and evaluated by using the sulforhodamine-B (SRB) assay. Briefly, cells were seeded into 96-well microtiter plates in 100 µL of the appropriate culture medium at plating densities at 2500, 5000 and 8000 cells/well for MCF-7, HCT-116 and SKOV-3, respectively, depending upon the doubling time of individual cell lines. After seeding, microtiter plates were incubated at 37 °C for 24 h before adding the test compounds. After 24 h, several samples of each cell line were fixed in situ with cold trichloroacetic acid (TCA) to represent a measurement of the cell population at the time of compound addition. The test compounds were freshly dissolved in dimethyl sulfoxide (DMSO, 10^−2 M) and gradually diluted to different concentrations (0.79–50 µM) with a complete medium, so that the maximum DMSO/well ratio was 0.5% v/v. After the addition of different compound concentrations to triplicate wells, the plates were further incubated at 37 °C for 72 h. Cells were fixed in situ by the gentle addition of 50 µL of cold 50% w/v TCA (final concentration 10%) and incubated for 1 h at 4 °C. The supernatant was discarded, and the plates were washed with tap water and air-dried. SRB solution (100 µL) at 0.4% (w/v) in 1% acetic acid was added to each well, and the plates were incubated for 30 min at room temperature. After staining, the unbound dye was removed by washing with 1% acetic acid and the plates were air-dried. The bound stain was then solubilized with 10mM Trizma base and the absorbance was read on an automatic plate reader at 570 nm.

A further assay concerns the target T1, human recombinant AChE (Homo sapiens, UniProt P22303).
T1 construct: purchased Sigma Aldrich (Milan, Italy)
Kind of assay: biochemical. Particulars: for inhibition at 10 µM: read-out: hAChE % inhibition at 10 μM. The procedure: (§3) Human isoforms of MAOs (from baculovirus-infected insect cells) and ChEs (human recombinant AChE and BChE from human serum), purchased from Sigma Aldrich (Milan, Italy), were used for inhibition assays. Experiments were performed in 96-well plates (Greiner Bio-One, Kremsmünster, Austria) on the Infinite M1000 Pro plate reader (Tecan, Cernusco s.N., Italy), using already published protocols.
(§4) The inhibition of human recombinant AChE or BChE from human serum was determined by applying Ellman’s spectrophotometric method as described in previously reported protocols. The AChE activity was determined in an assay solution containing AChE (0.09 U/mL), 5,5′-dithiobis(2-nitrobenzoic acid) (i.e., the Ellman’s reagent, 0.33 mM), the test compound (10 μM concentration, or seven scalar concentrations for compounds achieving > 60% enzyme inhibition at 10 μM), in 0.1 M PBS pH 8.0. […] The BChE inhibitory activity was similarly determined by using BChE (0.09 U/mL) and butyrylthiocholine iodide (5 μM) as the substrate.
(§5) The IC50 values, Michaelis–Menten curve fitting and inhibition constant (Ki) were calculated by nonlinear regression, using Prism software.

A further assay deals with T2, BChE from human serum (Homo sapiens, UniProt P06276).
T2 construct: ChEs (human recombinant AChE and BChE from human serum), purchased from Sigma Aldrich (Milan, Italy); purchased Sigma Aldrich (Milan, Italy); host or cells: human serum (natural source)
T2 sequence (P06276 29-602): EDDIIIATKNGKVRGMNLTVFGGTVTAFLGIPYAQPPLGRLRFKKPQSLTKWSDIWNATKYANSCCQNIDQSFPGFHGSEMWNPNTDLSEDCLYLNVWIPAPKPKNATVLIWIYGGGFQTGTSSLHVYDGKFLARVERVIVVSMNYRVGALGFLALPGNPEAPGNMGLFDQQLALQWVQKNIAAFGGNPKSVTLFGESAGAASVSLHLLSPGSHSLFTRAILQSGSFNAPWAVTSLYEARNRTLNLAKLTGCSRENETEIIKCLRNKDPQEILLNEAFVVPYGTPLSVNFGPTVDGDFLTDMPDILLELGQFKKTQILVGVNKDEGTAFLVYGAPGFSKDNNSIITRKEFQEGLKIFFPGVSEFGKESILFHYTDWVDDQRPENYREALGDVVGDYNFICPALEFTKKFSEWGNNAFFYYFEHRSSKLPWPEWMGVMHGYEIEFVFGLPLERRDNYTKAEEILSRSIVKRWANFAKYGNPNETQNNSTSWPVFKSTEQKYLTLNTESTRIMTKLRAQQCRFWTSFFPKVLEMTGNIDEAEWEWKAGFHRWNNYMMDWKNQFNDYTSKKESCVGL
Kind of assay: biochemical. The conditions noted are these: 10 μM concentration, mean ± S.D. (n = 3), n.i. = no inhibition at 10 μM; for inhibition at 10 µM: read-out: hBChE % inhibition at 10 μM. The procedure: as §3, §4, §5

Assay [2] concerns SK-OV-3, human ovarian carcinoma with intrinsic resistance to cisplatin. Kind of assay: Antiproliferative activity, sulforhodamine-B (SRB) assay, SK-OV-3. In kind it is cell-based. The conditions noted are these: read-out: Antiproliferative activity IC50, SK-OV-3. How it is done:
as §1, §2
On the technique in general: The SRB assay estimates cell density from bound dye.

A further assay concerns the target T3, human recombinant MAO B (Homo sapiens, UniProt P27338).
T3 construct: purchased Sigma Aldrich (Milan, Italy); host or cells: baculovirus-infected insect cells
T3 sequence (P27338 1-520): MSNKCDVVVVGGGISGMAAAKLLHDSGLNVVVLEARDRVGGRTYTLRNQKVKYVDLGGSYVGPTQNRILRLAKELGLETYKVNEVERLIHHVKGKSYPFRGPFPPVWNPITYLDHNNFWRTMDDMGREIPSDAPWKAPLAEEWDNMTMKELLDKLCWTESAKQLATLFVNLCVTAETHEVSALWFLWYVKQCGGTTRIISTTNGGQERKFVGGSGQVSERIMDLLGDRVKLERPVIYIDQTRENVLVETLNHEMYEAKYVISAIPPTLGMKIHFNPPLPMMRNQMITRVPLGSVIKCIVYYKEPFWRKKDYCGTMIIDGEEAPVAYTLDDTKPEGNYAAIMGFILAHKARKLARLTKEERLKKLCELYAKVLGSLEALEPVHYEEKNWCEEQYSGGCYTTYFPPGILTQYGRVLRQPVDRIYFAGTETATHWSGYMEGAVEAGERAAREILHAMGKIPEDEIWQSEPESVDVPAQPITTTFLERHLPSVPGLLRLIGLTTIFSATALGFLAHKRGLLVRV
Nature of the assay: biochemical. In kind it is biochemical. The conditions noted are these: for inhibition at 10 µM: read-out: hMAO-B % inhibition at 10 μM; for IC50: hMAO-B IC50, mean ± S.D., determined for compounds with more than 60% inhibition at 10 μM.

For another assay, the target named is T4, human recombinant MAO A (Homo sapiens, UniProt P21397).
T4 construct: purchased Sigma Aldrich (Milan, Italy); host or cells: baculovirus-infected insect cells
T4 sequence (P21397 1-527): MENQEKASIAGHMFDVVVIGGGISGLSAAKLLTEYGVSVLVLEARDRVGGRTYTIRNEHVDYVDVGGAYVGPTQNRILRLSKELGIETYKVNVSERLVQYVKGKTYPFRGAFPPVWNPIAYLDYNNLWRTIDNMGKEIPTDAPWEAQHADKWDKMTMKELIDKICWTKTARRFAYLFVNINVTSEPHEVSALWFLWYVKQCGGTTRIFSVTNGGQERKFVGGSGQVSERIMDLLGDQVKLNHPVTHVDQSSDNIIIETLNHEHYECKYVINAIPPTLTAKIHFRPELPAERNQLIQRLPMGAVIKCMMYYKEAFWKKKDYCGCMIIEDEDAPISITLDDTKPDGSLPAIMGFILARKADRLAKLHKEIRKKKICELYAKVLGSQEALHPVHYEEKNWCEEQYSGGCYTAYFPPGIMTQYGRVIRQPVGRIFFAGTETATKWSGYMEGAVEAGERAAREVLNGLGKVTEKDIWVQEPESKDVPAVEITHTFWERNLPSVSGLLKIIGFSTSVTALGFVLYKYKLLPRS
Nature of the assay: biochemical. In kind it is biochemical. Particulars: for Selectivity for MAO A over MAO B: from MAO A and MAO B inhibition data; for inhibition at 10 µM: read-out: hMAO-A % inhibition at 10 μM. The procedure: as §3
After the addition of human recombinant MAO A (250 U/mg) or MAO B (59 U/mg) and a further 30 min of incubation, NaOH was added, and the fluorescence read at 310/400 nm excitation/emission wavelength. […] IC50 is expressed as mean ± SD of three independent measurements, each one performed in duplicate. For the kinetic study on the inhibition mechanism of MAO B, three diverse scalar concentrations of the inhibitor and seven concentrations of kynuramine were used.
as §5

Assay [3] has as its system HCT116, colon cancer cell line. Nature of the assay: Antiproliferative activity, sulforhodamine-B (SRB) assay, HCT116. Type of assay: cell-based, human. Particulars: read-out: Antiproliferative activity IC50, HCT116. How it is done:
as §1, §2

The mark [4] stands for this setting: Homo sapiens, MCF7, 72 h exposure, SRB assay, mean ± S.D., >50 = less than 50% growth inhibition at 50 μM.
[5] abbreviates: Homo sapiens, SK-OV-3, 72 h, 72 h exposure, SRB assay, mean ± S.D., >50 = less than 50% growth inhibition at 50 μM.
Where [6] appears, read: Homo sapiens, HCT-116, 72 h exposure, SRB assay, mean ± S.D., >50 = less than 50% growth inhibition at 50 μM.
Where [7] appears, read: 72 h exposure, SRB assay, mean ± S.D., >50 = less than 50% growth inhibition at 50 μM.

For orientation: IC50 means the concentration that inhibits the measured activity by half. As usually defined, the inhibition is the relative decrease from the control value, in per cent. The Ki is a measure of affinity in units of concentration, obtained from inhibition or displacement.

Values joined by “and” are separate entries in the source; they are usually repeats but may differ in a detail not shown here. Identical values can stand only once. Like-named read-outs stand apart in the source and are kept apart here.

T1 sequence (P22303 32-614): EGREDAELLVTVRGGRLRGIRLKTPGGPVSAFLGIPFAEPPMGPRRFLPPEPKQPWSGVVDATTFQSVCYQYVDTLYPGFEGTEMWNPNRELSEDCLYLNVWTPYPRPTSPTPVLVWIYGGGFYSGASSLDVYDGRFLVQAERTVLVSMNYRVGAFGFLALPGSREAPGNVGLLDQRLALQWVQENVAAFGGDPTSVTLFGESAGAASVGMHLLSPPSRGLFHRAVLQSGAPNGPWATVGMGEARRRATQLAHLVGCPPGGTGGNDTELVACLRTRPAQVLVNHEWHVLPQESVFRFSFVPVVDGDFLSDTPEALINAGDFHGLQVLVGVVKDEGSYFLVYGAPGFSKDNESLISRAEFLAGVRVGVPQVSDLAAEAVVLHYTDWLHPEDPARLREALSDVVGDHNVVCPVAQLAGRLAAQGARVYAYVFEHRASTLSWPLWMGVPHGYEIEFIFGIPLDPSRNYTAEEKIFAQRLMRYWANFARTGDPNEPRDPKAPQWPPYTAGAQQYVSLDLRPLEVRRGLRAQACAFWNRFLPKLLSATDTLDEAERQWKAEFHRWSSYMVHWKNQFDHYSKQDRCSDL

On to `CN1CC=C2Oc3ccc(Cl)cc3C=C2C1` [2a, 8-Chloro-2,3-dihydro-2-methyl-1H-chromeno[3,2-c]pyridine], for which the half-inhibitory concentration (IC50) in assay [1] (Homo sapiens, MCF7, 72 h) was 48.1 ± 4.21 µM; in assay [2] (Homo sapiens, SK-OV-3, 72 h) it was over 50 µM; on human recombinant MAO A, 1.18 ± 0.07 µM. For the same compound, the inhibition at 10 µM on human recombinant AChE was 25%; at human recombinant MAO B, 45%. Further, at BChE from human serum, the “hBChE % inhibition at 10 μM” value is listed as “n.i”. For the same compound, the “Selectivity for MAO A over MAO B” value on human recombinant MAO A is “about tenfold”.
Take `CN1CC=C2Oc3ccc(Br)cc3C=C2C1` [2b, 8-Bromo-2,3-dihydro-2-methyl-1H-chromeno[3,2-c]pyridine]: the half-maximal inhibitory concentration (IC50) in assay [1] (Homo sapiens, MCF7, 72 h) was 42.9 ± 4.82 µM; in assay [2] (Homo sapiens, SK-OV-3, 72 h), over 50 µM; on human recombinant MAO B it was 7.88 ± 0.02 µM; at human recombinant MAO A it was 0.703 ± 0.012 µM; in assay [3] (Homo sapiens, HCT-116, 72 h) it was over 50 µM. The inhibition at 10 µM at human recombinant AChE was found to be 31%. Besides, at BChE from human serum, the “hBChE % inhibition at 10 μM” value is “n.i”. Further, the “Selectivity for MAO A over MAO B” value at human recombinant MAO A is given as “about tenfold”.
Regarding `COc1cccc2c(=O)c3c(oc12)C=CN(C)C3C#Cc1ccccc1` (stereo not shown) [3b, 6-Metoxy-2-methyl-1-(phenylethinyl)-1H-chromeno[3,2-c]pyridine-10(2H)-one], the IC50 was 39.7 ± 11.3 µM in assay [1] (setting [4]); over 50 µM in assay [2] (setting [5]); 0.63 µM and 0.626 µM at human recombinant MAO B; 36.1 ± 2.1 µM in assay [3] (setting [6]). For the same compound, the inhibition at 10 µM on human recombinant AChE turned out to be 39%; on BChE from human serum, 19%; at human recombinant MAO A, 32%. The inhibition constant (Ki) at human recombinant MAO B worked out at 1.41 ± 0.21 µM. For the same compound, at human recombinant MAO B (Michaelis-Menten curves' fitting, kynuramine as the substrate), the “MAO B inhibition mechanism” value is given as “competitive”. Also, the “MAO B/A selectivity” value at human recombinant MAO B (from MAO B and MAO A inhibition data) is recorded as “more than twentyfold”.
As to `CCN1C=Cc2oc3ccccc3c(=O)c2C1C#CC(F)(F)F` (stereo not shown) [3c, 2-Ethyl-1-(3,3,3-trifluoroprop-1-yn-1-yl)-1,2-dihydro-10H-chromeno[3,2-c]pyridin-10-one], the concentration for half-maximal inhibition (IC50) in assay [1] (setting [4]) is 27.8 ± 9.6 µM; in assay [2] (setting [5]), over 50 µM; in assay [3] (setting [6]) it was 47.2 ± 5.42 µM. In addition, the “hAChE % inhibition at 10 μM” value on human recombinant AChE was “n.i”. In addition, the results for the inhibition at 10 µM at BChE from human serum, on human recombinant MAO B and on human recombinant MAO A were 15%, 26% and 20%, respectively.
Consider `CN1CCC2=C(C1)C(c1c[nH]c3ccccc13)c1cc(Cl)ccc1O2` (stereo not shown) [6a, 8-Chloro-10-(1H-indole-3-yl)-2-methyl-2,3,4,10-tetrahydro-1H-chromeno[3,2-c]pyridine], for which the IC50 in assay [1] (setting [4]) came out at 4.8 ± 0.81 µM; in assay [2] (setting [5]), 14.7 ± 2.81 µM; at human recombinant MAO B it was 7.3 ± 0.65 µM; in assay [3] (setting [6]), 8.62 ± 2.21 µM. Moreover, the inhibition at 10 µM on human recombinant AChE came out at 53%; at BChE from human serum, 38%; at human recombinant MAO A it was 21%.
Regarding `COc1ccc2[nH]cc(C3C4=C(CCN(C)C4)Oc4ccc(Cl)cc43)c2c1` (stereo not shown) [6b, 8-Chloro-10-(5-metoxy-1H-indole-3-yl)-2-methyl-2,3,4,10-tetrahydro-1H-chromeno[3,2-c]pyridine], the IC50 in assay [1] (setting [4]) stood at 6.62 ± 2.7 µM; in assay [2] (setting [5]) it was 22.3 ± 1.42 µM; at human recombinant MAO B, 4.72 ± 0.1 µM; in assay [3] (setting [6]), 18.6 ± 2.22 µM. The figures for the inhibition at 10 µM on human recombinant AChE, on BChE from human serum and on human recombinant MAO A were 53%, 15% and 21%, respectively.
With `N.N.[Cl][Pt][Cl]` [Cisplatin, reference compound], the IC50 in assay [1] (setting [7]) was found to be 4.8 ± 2.2 µM; in assay [2] (setting [7]) it was 4.43 ± 0.32 µM; in assay [3] (setting [7]), 5.02 ± 2.12 µM.
Turning to `COc1cccc2c1C(=O)c1c(O)c3c(c(O)c1C2=O)C[C@@](O)(C(=O)CO)C[C@@H]3O[C@H]1C[C@H](N)[C@H](O)[C@H](C)O1` [Doxorubicin, doxorubicin, reference compound], the results for the half-inhibitory concentration (IC50) in assay [1] (setting [4]), in assay [2] (setting [5]) and in assay [3] (setting [6]) were 0.18 ± 0.02 µM, 2.2 ± 0.02 µM and 0.38 ± 0.03 µM, respectively.
